In patent US11547706B2, “Methods and compositions for reducing tactile dysfunction and anxiety associated with autism spectrum disorder, Rett syndrome, and Fragile X syndrome” (President and Fellows of Harvard College, priority 2016, dated 2023):
Entries after “also recorded” stand apart in the source; their conditions may differ.

Assays:
[1] = tested on: Advillin^Cre; Mecp2^f/y mutant mice and control littermates; test: Magnitude of startle response to a 125 dB noise after drug injection; format: in vivo, mouse; conditions: Midazolam 2.5 mg/kg injection, compared to animals treated with vehicle
Protocol: (§1) FIG. 15A is a graph showing the startle response of Advillin^Cre; Mecp2^f/y mutant mice and control littermates following injection of: vehicle (saline), Bumetanide (0.2 mg/kg), Midazolam (2.5 mg/kg) or isoguvacine (1 mg/kg). […] FIG. 15B is a graph showing the response to tactile PPI of Advillin^Cre; Mecp2^f/y mutant mice and control littermates following injection of: vehicle (saline), Bumetanide (0.2 mg/kg), Midazolam (2.5 mg/kg) or isoguvacine (1 mg/kg). […] FIG. 15C is a graph showing the response to air puff alone of Advillin^Cre; Mecp2^f/y mutant mice and control littermates following injection of: vehicle (saline), Bumetanide (0.2 mg/kg), Midazolam (2.5 mg/kg) or isoguvacine (1 mg/kg).
(§2) The response of mice to tactile and acoustic startle stimuli, and the ability of a tactile or acoustic stimulus to inhibit startle to a loud acoustic stimulus was measured using a San Diego Instruments startle reflex system (SR-LAB™ Startle Response System). […] Air puffs were administered to the back of the mouse to assess hairy skin sensitivity. […]
(§3) For acoustic PPI, the prepulse was 20 ms in duration and presented 100 ms before the startle pulse (inter-stimulus interval, ISI). […] Whole body flinch, or startle reflex, was quantitated using an accelerometer sensor measuring the amplitude of movement of the animal, within the cylindrical holder.

[2] = tested on: Advillin^Cre; Mecp2^f/y mutant mice; test: Tactile PPI assay after drug injection; format: in vivo, mouse; conditions: Midazolam 2.5 mg/kg or isoguvacine 1 mg/kg injection
Protocol: as §1, §2, §3

[3] = tested on: Advillin^Cre; Mecp2^f/y mutant mice; test: Response to air puff stimulus alone after drug injection; format: in vivo, mouse; conditions: Midazolam 2.5 mg/kg or isoguvacine 1 mg/kg injection
Protocol: as §1
The response of mice to tactile and acoustic startle stimuli, and the ability of a tactile or acoustic stimulus to inhibit startle to a loud acoustic stimulus was measured using a San Diego Instruments startle reflex system (SR-LAB™ Startle Response System). […] Air puffs were administered to the back of the mouse to assess hairy skin sensitivity. […] In addition, this prepulse intensity was chosen because it produced significant inhibition of startle reflex at multiple (ISIs). […]

[4] = tested on: large diameter DRG neurons cultured from control mice; test: Whole cell patch clamp recordings of cultured large diameter DRG neurons; format: cell-based, mouse; conditions: 10 μM isoguvacine, 5 minutes after application
Excerpt: Repeated measures one-way ANOVA, *, p<0.05. […] Student's paired t-test, p<0.05. […] Repeated measures one-way ANOVA, *, p<0.05. […] Student's paired t-test, p<0.05.
These exciting findings prompted us to ask whether peripherally restricted GABAA receptor agonists could also be used to ameliorate tactile hypersensitivity and other behavioral deficits in ASD models. We utilized a peripherally restricted GABAA receptor agonist, isoguvacine, to determine whether augmenting GABAA receptor signaling at DRG cell bodies could reduce excitability of primary somatosensory afferents.

[5] = tested on: large diameter DRG neurons cultured from Shank3B^+/- or Mecp2^STOP/y mice; test: Whole cell patch clamp recordings of cultured large diameter DRG neurons from mutant mice; format: cell-based, mouse; conditions: 10 μM isoguvacine; for resting membrane potential / rheobase, excitability: neurons from Shank3B^+/- or Mecp2^STOP/y mice
Excerpt: Repeated measures two-way ANOVA with post-hoc Tukey's test: *, p<0.05. […] Repeated measures two-way ANOVA with post-hoc Tukey's test: *, p<0.05. […] Repeated measures two-way ANOVA with post-hoc Tukey's test: *, p<0.05. […] Repeated measures two-way ANOVA with post-hoc Tukey's test: *, p<0.05.
We next determined whether isoguvacine could improve electrophysiological deficits observed in large diameter peripheral somatosensory neurons cultured from Shank3 and Mecp2 mutant mice.

[6] = tested on: Mecp2, Shank3 and Fmr1 mutant mice; test: Tactile PPI assay in multiple ASD mouse models; format: in vivo; conditions: 1 mg/kg, i.p., acute, 30 minutes before test
Protocol: (§4) Values are expressed as percent of control littermates' performance. Experiments were performed in mutant mice (Advillin^Cre; Mecp2^f/y, Shank3B^+/− or Fmr1^−/y) and control littermates, 30 minutes after an intraperitoneal (i.p.) of either saline (vehicle) or Isoguvacine (1 mg/kg). Two-way ANOVA, with post-hoc Holm-Sidak's test, *, p<0.05, when comparing mutants to control within same treatment; #, p<0.05, when comparing the same genotype across different treatments. FIG. 56B is a graph of response to a light air puff stimulus alone (0.9 PSI, 50 ms). Responses are expressed as a percent of startle response to a 125-B noise. Experiments were performed in mutant mice (Advillin^Cre; Mecp2^f/y, Shank3B^+/− or Fmr1^−/y) and control littermates, 30 minutes after an intraperitoneal (i.p.) of either saline (vehicle) or isoguvacine (1 mg/kg). Two-way ANOVA, with post-hoc Holm-Sidak's test, *, p<0.05, and t, p<0.10, when comparing mutants to control within same treatment; #, p<0.05, when comparing the same genotype across different treatments. FIG. 56C is a graph of magnitude of startle response to a 125-dB noise. […]
(§5) The response of mice to tactile and acoustic startle stimuli, and the ability of a tactile or acoustic stimulus to inhibit startle to a loud acoustic stimulus was measured using a San Diego Instruments startle reflex system (SR-LAB™ Startle Response System). […]

[7] = tested on: mice including Advillin^Cre; Mecp2^floxed mutant mice; test: Open field test after isoguvacine; format: in vivo, mouse; conditions: 1 mg/kg, i.p.
Protocol: as §4
On the first day of behavioral testing, animals were subjected to the open field test. […] A portion of videos were blindly hand-scored to verify accuracy. Distance traveled and time spent away from walls (time in center) were analyzed per 10-minute video.

control mice = test: Tactile PPI with back hairy skin pretreated with lidocaine; format: in vivo, mouse
Protocol: FIG. 1A is an image showing a smooth textured object (left) and a rough textured object (right) used in the textured NORT. FIG. 1B is a schematic outlining the protocol for the three NORT assays. FIG. 1C is a graph showing the discrimination indices for textured NORT. A positive value indicates preference for the novel object, compared to the familiar object. *, p<0.05. FIG. 1D is a graph showing the discrimination indices for 5 minute control NORT. A positive value indicates preference for the novel object, compared to the familiar object. *, p<0.05. FIG. 1E is a graph showing the discrimination indices for 1 hour control NORT. A positive value indicates preference for the novel object, compared to the familiar object. *, p<0.05. FIG. 1F is a schematic showing the tactile PPI assay. […] Responses are expressed as percent of startle response to a 125 dB noise. *, p<0.01. […] Responses are expressed as percent of startle response to a 125 dB noise. *, p<0.05. […]
as §5

SMILES	startle amplitude [1]	responses in the tactile PPI assay [2]	response to an air puff stimulus alone [3]	minimal current required to produce an action potential (rheobase), excitability [4]	resting membrane potential [4]	rheobase compared with neurons cultured from control littermates ([5]; neurons from Shank3B^+/- and Mecp2^STOP/y mice)	resting membrane potential [5]	rheobase, excitability [5]	resting membrane potential ([5]; listed as Isoguvacine)	rheobase, excitability ([5]; listed as Isoguvacine)	tactile hypersensitivity, as measured by the tactile PPI assay [6]	time spent in the center of a chamber during the open field test [7]	tactile PPI (control mice)
Cc1ncc2n1-c1ccc(Cl)cc1C(c1ccccc1F)=NC2 [Midazolam]	trend toward decreased startle amplitude	trend toward normalized responses	decreased response to an air puff stimulus alone	–	–	–	–	–	–	–	–	–	–
O=C(O)C1=CCNCC1 [isoguvacine]	–	trend toward normalized responses	decreased response to an air puff stimulus alone	decreases excitability; also recorded: increase in the amount of minimal current required to produce an action potential	reduces resting membrane potential; also recorded: decrease in resting membrane potential	rheobase was no longer different than neurons cultured from control littermates	significant decrease in resting membrane potential	increase in rheobase	reduces resting membrane potential	decreases excitability	significantly reduces tactile hypersensitivity	enhanced the time spent in the center	–
CCN(CC)CC(=O)Nc1c(C)cccc1C [lidocaine]	–	–	–	–	–	–	–	–	–	–	–	–	abolished
